For the assay, the target named is T1, Thioredoxin (Homo sapiens, UniProt P10599).
T1 sequence (P10599 whole entry): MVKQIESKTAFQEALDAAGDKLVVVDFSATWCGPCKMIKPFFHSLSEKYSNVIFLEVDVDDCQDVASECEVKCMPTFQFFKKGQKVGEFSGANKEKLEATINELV
The experiment in a line: In vitro Assay. As to conditions: pH 7.6. As for the experimental part: The method of determining thioredoxin activity is based on the reduction of insulin by thioredoxin. Thioredoxin is reconstituted is by thioredoxin reductase, with NADPH. The resulting free thiol -SH groups react with 5,5′-dithiobis-2-nitrobenzoic acid (DTNB). The termination of the reaction results in the formation of a […]. […] The reaction was performed at 37° C. over 30 min. in a buffer containing 50 mM Tris-HCl and 20 mM EDTA at a pH of 7.6.

What is called IC50 is the concentration at which inhibition is half-maximal. Read a high IC50 as weaker potency. `C=C(COC(=O)c1c(C(F)(F)F)cccc1C(F)(F)F)C(=O)NCc1ccccc1` [US9018255, 8a] had an IC50 of 8.6 µM.
